Test results from patent US20230339991A1, “HYPOXIA-ACTIVATED DNA ALKYLATING AGENT AND MEDICAL USE THEREOF” (ASCENTAWITS PHARMACEUTICALS, LTD., priority 2020, published 2023).

Experiments:
[1] = test system: NCIH2106; assay: Cytotoxicity, NSCLC cell line NCIH2106; format: cell-based; details: Homo sapiens
Method: (§1) Compounds were exposed at various concentrations for 72 hours, followed by a wash step. Fresh medium was added for growth. The cell was stained to determine the cell survival rate and compared with controls treated with medium only.
(§2) In particular, exponentially grown cells were inoculated in 96-well plates at a density of 2×10^3 cells/100 μl/well and incubated for 24 hours at 37° C. and under the conditions of 5% CO2, 95% air and 100% relative humidity before addition of 99 μl of culture solution. The compounds were dissolved in 100% DMSO at 200 times of the desired final test concentration. When the drug was added, an aliquot of 1 μl of the compound at the specified concentration was added to microwells already containing 199 μl of medium to obtain the reported final drug concentration. After adding the drug, plates were incubated for an additional 72 hours at 37° C., 5% CO2, 95% air and 100% relative humidity. The cell assay plate was left to balance for 30 minutes at room temperature and 100 μL of medium was removed from per well. 100 μl CTG reagent (CelltiterGlo kit) was added into each well. The plate was placed on a fast shaker and shaked for 2 min, and kept in dark at room temperature for 30 min. The chemiluminescence signal value was read by Envision instrument. […]

[2] = test system: NCI-H23; assay: Cytotoxicity, NSCLC cell line NCI-H23; format: cell-based; details: Homo sapiens
Method: as §1, §2

[3] = test system: NCI-H522; assay: Cytotoxicity, NSCLC cell line NCI-H522; format: cell-based; details: Homo sapiens
Method: as §1, §2

[4] = test system: NCI-H2110; assay: Cytotoxicity, NSCLC cell line NCI-H2110; format: cell-based; details: Homo sapiens
Method: as §1, §2

[5] = test system: AsPC-1; assay: Cytotoxicity, pancreatic cancer PA cells AsPC-1; format: cell-based; details: Homo sapiens, ASPC1
Method: as §1, §2

[6] = test system: QGP-1; assay: Cytotoxicity, pancreatic cancer PA cells QGP-1; format: cell-based; details: Homo sapiens
Method: as §1, §2

[7] = test system: HPAF-II; assay: Cytotoxicity, pancreatic cancer PA cells HPAF-II; format: cell-based; details: Homo sapiens
Method: as §1, §2

[8] = test system: CFPAC1; assay: Cytotoxicity, pancreatic cancer PA cells CFPAC1; format: cell-based; details: Homo sapiens, CFPAC-1
Method: as §1, §2

[9] = test system: Capan-1; assay: Cytotoxicity, pancreatic cancer PA cells Capan-1; format: cell-based; details: Homo sapiens
Method: as §1, §2

[10] = test system: Panc 02.03; assay: Cytotoxicity, pancreatic cancer PA cells Panc 02.03; format: cell-based; details: Homo sapiens
Method: as §1, §2

[11] = test system: PANC-1; assay: Cytotoxicity, pancreatic cancer PA cells PANC-1; format: cell-based; details: Homo sapiens
Method: as §1, §2

[12] = test system: KP-4; assay: Cytotoxicity, pancreatic cancer PA cells KP-4; format: cell-based; details: Homo sapiens
Method: as §1, §2

[13] = test system: human liver cancer HepG2 subcutaneous xenograft; assay: Human liver cancer HepG2 subcutaneous xenograft model; format: in vivo, BALB/c nude mice; details: for relative tumor inhibition rate TGI (%): QW×3, tail vein, Day 45
From the text: BALB/c nude mice were subcutaneously inoculated with human liver cancer HepG2 cells to establish human liver cancer subcutaneous transplantation tumor model.

[14] = test system: murine intestinal cancer CT26 subcutaneous model; assay: Murine intestinal cancer CT26 subcutaneous model; format: in vivo, BALB/c mice; details: 30 mg/kg, tail vein, twice a week
Method: BALB/c mice were subcutaneously inoculated with murine intestinal cancer CT26 cells to establish a murine intestinal cancer subcutaneous transplantation model. […] Anti-mouse PD-1 Ab 10 mg/kg in the single treatment group and in the combination treatment group with compound C 30 mg/kg was administered by intraperitoneal injection twice a week.

[15] = Maximal tolerance dose (MTD) test, compound C, two cycles; format: in vivo, ICR mice; details: both sexes, mouse, in vivo; intravenous; ICR mice; read-out: maximal tolerance dose (MTD), overall
Method: (§3) 18 ICR mice, 9 females/9 males, were randomly divided into compound C 10 mg/kg group, 20 mg/kg group and 40 mg/kg group according to gender and body weight, with 3 females/3 males in each group. […] It was administered once a day for 5 continuous days, and recovered for 1 week after the last administration. […] To explore the maximal tolerance dose, two cycles of administration were required. The dosage was adjusted and the administration was continued for 5 days.
(§4) The animals were closely observed for 2 h after administration on the administration day and once a day in the morning and once in the afternoon on the non-administration day. Body weight and dietary intake were measured twice a week during the test period. Dead animals and all surviving animals after 14 days from the last administration were subjected to autopsy. The autopsy was performed on the pathological organs, and histopathological examination of the pathological organs was performed.

[16] = test system: ICR mice; assay: as above; format: in vivo; details: for maximal tolerance dose: intravenous, ICR mice
Method: as §3, §4

[17] = test system: ICR mice; assay: Maximal tolerance dose (MTD) test, compound B; format: in vivo; details: 40 mg/kg group; i.v. QD×5
Method: 18 ICR mice, 9 females/9 males, were randomly divided into compound B 10 mg/kg group, 20 mg/kg group and 40 mg/kg group according to gender and body weight, with 3 females/3 males in each group. […] It was administered once a day for 5 days, and recovered for 2 weeks after the last administration. The animals were closely observed for 2 h after administration on the administration day and once a day in the morning and once in the afternoon on the non-administration day. Body weight and dietary intake were measured twice a week during the test period. Dead animals and all surviving animals after 14 days from the last administration were subjected to autopsy. The autopsy was performed on the pathological organs, and histopathological examination of the pathological organs was performed.

[18] = Liver microsome stability, monkey
Method: 1) Two individual experiments were performed.
1a) With NADPH: 10 μL of 20 mg/mL liver microsomes and 40 μL of 10 mM NADPH were added to the culture solution. The final concentrations of microsomes and NADPH were 0.5 mg/mL and 1 mM, respectively.
1b) Without NADPH: 10 μL of 20 mg/mL liver microsomes and 40 μL of ultrapure H2O were added to the culture solution. The final concentration of microsomes was 0.5 mg/mL.
3) 50 μL of aliquots were taken from the reaction solution at 0 min and 30 min. The reaction was terminated by adding 4 volumes of cold acetonitrile and four internal standards (IS, 100 nM alprazolam, 200 nM caffeine, 200 nM labetalol and 2 μM ketoprofen). The samples were centrifuged at 3, 220×g for 40 min. The aliquots of 100 μL of supernatant were mixed with 100 μL of ultrapure H2O and then used for LC-MS/MS analysis. All experiments were performed in duplicate.

In the case of `O=[N+]([O-])c1ccc(C(OP(=O)(N2CC2)N2CC2)C(F)(F)F)c2ccccc12` (racemic) [Compound A], the IC50 [1] is reported as 14.8 µM, the IC50 [2] is reported as 6.41 µM and the IC50 [3] is reported as 19.2 µM. It also gave an IC50 [4] of 0.382 µM, an IC50 [5] of 12.6 µM and an IC50 [6] of 6.27 µM. For the same molecule, the IC50 [7] was 26.1 µM, the IC50 [8] was 2.86 µM and the IC50 [9] was 5.97 µM. It also gave an IC50 [10] of 45.7 µM, an IC50 [11] of 29.3 µM and an IC50 [12] of 6.1 µM.

For `O=[N+]([O-])c1ccc([C@@H](OP(=O)(N2CC2)N2CC2)C(F)(F)F)c2ccccc12` (single isomer, unassigned) [Compound C], the cure rate ([13]; 20 mg/kg (Group 5)) was 20%, the “relative tumor inhibition rate TGI (%)” value ([13]; 20 mg/kg) was 33.10% and the cure rate ([13]; 40 mg/kg (Group 6)) was 20%. The “relative tumor inhibition rate TGI (%)” value ([13]; 40 mg/kg) was 75.59%, the median survival time [14] was 19 days and the MTD [15] was 20 to 40 mg/kg. The “animal deaths after first cycle” value ([16]; 10, 20 and 40 mg/kg i.v., continuous administration for 5 days) was “no animal death”, the animal deaths ([16]; 10/80 mg/kg group (first cycle 10, second cycle 80 mg/kg)) was 1/6 and the animal deaths ([16]; 20/60 mg/kg group) was 3/6. The animal deaths ([16]; 40/40 mg/kg group) was 1/6, the maximal tolerance dose ([16]; first cycle) was > 40 mg/kg and the maximal tolerance dose ([16]; second cycle) was < 40 mg/kg.

For `O=[N+]([O-])c1ccc([C@H](OP(=O)(N2CC2)N2CC2)C(F)(F)F)c2ccccc12` [Compound B], the animal deaths [17] was “Three of the six”.

For `CC(OP(=O)(N1CC1)N1CC1)c1ccc([N+](=O)[O-])c2ccccc12` (stereo not drawn) [Compound D], the “Remaining percentage after 30 minutes” value ([18]; with NADPH) was 0.86% and the “Remaining percentage after 30 minutes” value ([18]; without NADPH) was 95.89%.
